Experimental data taken from US20080319065A1, “Systemic and Intrathecal Effects of a Novel Series of Phospholipase A2 Inhibitors on Hyperalgesia and Spinal Pge2 Release” (The Regents of the University of California, priority 2005, published 2008).
“Also recorded” adds a separate entry of the source.

Columns and labels:
[1] = target: T1, Group IVA cPLA2 (GIVA PLA2) (Homo sapiens, UniProt P47712); assay: In vitro Group IVA cPLA2 mixed micelle assay; format: biochemical; settings: for Inhibition of GIVA PLA2: at highest dose; for cPLA2 inh, XI(50): Table 3; for inhibition at 0.091 mole fraction: read-out: cPLA2 inh, percent inhibition (converted)
T1 sequence (P47712 1-749): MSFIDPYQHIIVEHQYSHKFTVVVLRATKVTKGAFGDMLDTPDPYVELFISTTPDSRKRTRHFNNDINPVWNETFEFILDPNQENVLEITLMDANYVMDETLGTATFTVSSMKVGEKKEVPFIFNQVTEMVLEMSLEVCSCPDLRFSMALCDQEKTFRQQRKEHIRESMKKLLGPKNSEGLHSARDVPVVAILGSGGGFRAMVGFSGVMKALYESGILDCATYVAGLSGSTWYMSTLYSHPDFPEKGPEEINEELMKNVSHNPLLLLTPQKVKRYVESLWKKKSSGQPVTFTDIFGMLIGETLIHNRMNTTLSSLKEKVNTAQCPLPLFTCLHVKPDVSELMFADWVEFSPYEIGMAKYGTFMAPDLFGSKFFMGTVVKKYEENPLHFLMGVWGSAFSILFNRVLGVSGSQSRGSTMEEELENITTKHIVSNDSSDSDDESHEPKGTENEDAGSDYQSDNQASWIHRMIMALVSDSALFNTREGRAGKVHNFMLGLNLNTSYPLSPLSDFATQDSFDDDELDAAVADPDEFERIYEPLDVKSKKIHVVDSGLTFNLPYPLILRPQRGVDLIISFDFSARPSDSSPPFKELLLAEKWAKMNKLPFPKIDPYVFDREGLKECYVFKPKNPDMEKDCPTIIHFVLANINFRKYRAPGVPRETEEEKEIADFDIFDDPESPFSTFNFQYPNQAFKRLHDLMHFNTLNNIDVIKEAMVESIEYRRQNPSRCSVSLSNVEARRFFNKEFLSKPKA
Protocol: (§1) Numerous 2-oxoamides were tested for inhibition of PLA2s in in vitro assay systems. The data, summarized in Tables 1a, 1b and 2 are represented as XI(50) values unless otherwise noted. XI(50) is defined as the inhibitor concentration that produced 50% inhibition. XI(50) is used as opposed to the more common IC50 because GIVA and GVIA PLA2 are active at a two-dimensional lipid interface rather than in three-dimensional solution. (Deems, Anal. Biochem., 287:1-16, 2000). The 2-oxoamide inhibitors likely partition to the micelle interface and therefore must be represented as a percentage of surface concentration (mole fraction) as opposed to bulk concentration (molar units). (Kokotos, et al., J. Med. Chem., 45:2891-2893, 2002).
(§2) In vitro Group IV cPLA2 and Group VI iPLA2 assays were done as previously described (Kokotos, et al., supra, 2002). Briefly, 100 μM lipid substrate and 100,000 cpm radiolabeled analog were dried down under N2 and dissolved in assay buffer containing 400 μM Triton X-100 to yield a mixed micelle substrate solution. Inhibitors dissolved in DMSO were added to the reaction tubes and allowed to incubate with substrate for five minutes at 40° C. Pure enzyme was added to yield a final volume of 500 μl, and digestion was carried out at 40° C. for 30 minutes. Reactions were quenched and extracted using the Dole method and products were quantified by liquid scintillation counting. Percent inhibition was determined at a range of inhibitor mole fraction concentrations for XI(50) calculations.

[2] = target: T2, Group VIA iPLA2 (GVIA PLA2) (Homo sapiens, UniProt O60733); assay: In vitro Group VIA iPLA2 mixed micelle assay; format: biochemical; settings: for Inhibition of GVIA PLA2: at highest dose; for iPLA2 inh, XI(50): Table 3; for inhibition at 0.091 mole fraction: read-out: iPLA2 inh, percent inhibition
T2 sequence (O60733 1-806): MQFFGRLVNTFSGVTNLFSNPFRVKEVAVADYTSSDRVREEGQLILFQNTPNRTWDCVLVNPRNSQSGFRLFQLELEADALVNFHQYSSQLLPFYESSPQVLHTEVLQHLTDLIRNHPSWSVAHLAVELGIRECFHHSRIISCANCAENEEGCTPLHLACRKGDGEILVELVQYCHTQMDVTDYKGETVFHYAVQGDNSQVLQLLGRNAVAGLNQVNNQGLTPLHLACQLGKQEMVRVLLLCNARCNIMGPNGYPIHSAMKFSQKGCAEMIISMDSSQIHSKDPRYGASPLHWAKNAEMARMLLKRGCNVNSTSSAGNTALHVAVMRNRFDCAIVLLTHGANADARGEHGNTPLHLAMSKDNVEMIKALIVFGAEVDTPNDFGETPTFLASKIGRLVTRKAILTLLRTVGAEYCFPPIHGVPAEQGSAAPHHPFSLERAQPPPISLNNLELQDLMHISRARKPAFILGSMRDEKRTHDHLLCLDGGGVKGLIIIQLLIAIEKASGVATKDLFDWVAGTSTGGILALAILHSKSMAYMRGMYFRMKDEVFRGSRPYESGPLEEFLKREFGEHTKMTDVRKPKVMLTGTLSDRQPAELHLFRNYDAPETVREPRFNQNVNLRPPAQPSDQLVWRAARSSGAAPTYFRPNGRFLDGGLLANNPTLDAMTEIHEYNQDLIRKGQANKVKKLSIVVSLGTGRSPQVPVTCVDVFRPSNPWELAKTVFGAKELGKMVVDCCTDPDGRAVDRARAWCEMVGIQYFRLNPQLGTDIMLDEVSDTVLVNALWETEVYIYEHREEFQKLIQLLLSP
Protocol: as §1, §2

GV sPLA2 = target: T3, GV sPLA2 (Homo sapiens, UniProt P39877); assay: GV sPLA2 activity assay; format: biochemical; settings: for efficacy against sPLA2: at 0.091 mole fraction; for inhibition at 0.091 mole fraction: read-out: sPLA2 inh., percent inhibition
T3 sequence (P39877 21-138): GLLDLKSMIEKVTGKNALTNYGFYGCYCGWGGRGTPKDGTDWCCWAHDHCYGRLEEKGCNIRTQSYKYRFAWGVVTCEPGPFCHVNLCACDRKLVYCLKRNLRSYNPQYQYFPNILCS
Protocol: GV sPLA2 activity was measured in a similar assay. The final assay buffer was composed of 50 mM Tris-HCl (pH 8.0) and 5 mM CaCl2. Each assay was performed in 500 μL total volume made up of 100 μL of 5× substrate solution (20 μL of 10 mM Triton X-100 and 80 μL assay buffer), 390 μL assay buffer, 10 μL GV sPLA2 solution (1 μL of 40 ng/μL stock and 9 μL assay buffer), and 5 μL of DMSO or 2-oxoamide in DMSO. The 5× substrate solution was prepared by drying down the phospholipids (in organic solvent) with N2. The appropriate volume of 10 mM Triton X-100 was added, heated and vortexed until clear. Then assay buffer was added to make a 5× substrate solution. The final mixed micelles were at 400 μM Triton X-100 and 100 μM DPPC (of which 100,000 cpm of ^14C-DPPC).

Compound | inhibition at 0.091 mole fraction (GV sPLA2) [%] | inhibition at 0.091 mole fraction [1] [%] | inhibition at 0.091 mole fraction [2] [%] | further results
CCC(=O)C(N)=O [AX001] | – | – | – | inhibition of GIVA PLA2 (cPLA2), in words [1]: neither exhibits significant inhibition; Inhibition of GIVA PLA2 [1]: ND (negligible inhibition (0-25%) at highest dose); inhibition of GVIA PLA2 (iPLA2), in words [2]: neither exhibits significant inhibition; Inhibition of GVIA PLA2 [2]: ND^a (negligible inhibition (0-25%) at highest dose)
CCNC(=O)C(=O)CC [AX002] | – | – | – | inhibition of GIVA PLA2 (cPLA2), in words [1]: no detectable inhibition of GIVA PLA2; Inhibition of GIVA PLA2 [1]: ND (negligible inhibition (0-25%) at highest dose); inhibition of GVIA PLA2 (iPLA2), in words [2]: limited inhibition of GVIA PLA2; Inhibition of GVIA PLA2 [2]: LD^b (limited inhibition (25-50%) at highest dose)
CCNC(=O)C(=O)CC [AX009] | – | – | – | inhibition of GIVA PLA2 (cPLA2), in words [1]: no detectable inhibition of GIVA PLA2; Inhibition of GIVA PLA2 [1]: ND (negligible inhibition (0-25%) at highest dose); inhibition of GVIA PLA2 (iPLA2), in words [2]: limited inhibition of GVIA PLA2; Inhibition of GVIA PLA2 [2]: LD (limited inhibition (25-50%) at highest dose)
NC(=O)C(=O)CCCCc1ccccc1 [AX015] | – | – | – | inhibition of GIVA PLA2 (cPLA2), in words [1]: neither exhibits significant inhibition; also recorded: no significant activity; Inhibition of GIVA PLA2 [1]: ND (negligible inhibition (0-25%) at highest dose); inhibition of GVIA PLA2 (iPLA2), in words [2]: neither exhibits significant inhibition; also recorded: no significant activity; Inhibition of GVIA PLA2 [2]: ND (negligible inhibition (0-25%) at highest dose); efficacy against sPLA2 (GV sPLA2): 45.3%
O=C(O)CCCNC(=O)C(=O)CCCCc1ccccc1 [AX035, 4-(2-Oxo-6-phenyl-hexanoylamino)-butyric acid] | – | – | – | Inhibition of GIVA PLA2 [1]: ND (negligible inhibition (0-25%) at highest dose); Inhibition of GVIA PLA2 [2]: ND (negligible inhibition (0-25%) at highest dose); melting point: 60 to 62 °C
O=C(O)CCCNC(=O)C(=O)CCCc1ccccc1 [AX036, 4-(2-Oxo-5-phenyl-pentanoylamino)-butyric acid] | – | – | – | Inhibition of GIVA PLA2 [1]: ND (negligible inhibition (0-25%) at highest dose); Inhibition of GVIA PLA2 [2]: ND (negligible inhibition (0-25%) at highest dose); melting point: 65 to 67 °C
CC/C=C\CC(=O)C(=O)NCCCC(=O)OC(C)(C)C [AX055] | 85.3 | – | – | cPLA2 inh, XI(50) [1]: XI(50) =0.014 ± .009 mole fraction; iPLA2 inh, XI(50) [2]: XI(50) =0.054 ± .004 mole fraction
CCC[C@@H](CCCCC(=O)OCC)NC(=O)C(=O)CC [AX065] | 23.2 | 61.8 | – | iPLA2 inh, XI(50) [2]: XI(50) =0.054 ± .016 mole fraction
CCOCCCCNC(=O)C(=O)CC [AX081] | 76.5 | – | 50.9 | cPLA2 inh, XI(50) [1]: XI(50) =0.018 ± .016 mole fraction
CCCCC(=O)CCCNC(=O)C(=O)CC [AX082] | 7.4 | 31.8 | – | –
CCOC(=O)CCCNC(=O)C(=O)CCc1ccc(OCC)cc1 [AX090] | 51.7 | – | 67.3 | cPLA2 inh, XI(50) [1]: XI(50) =0.050 ± .002 mole fraction
CCOC(=O)c1ccc(NC(=O)C(=O)CC)cc1 [AX091] | 66.5 | – | 14.3 | cPLA2 inh, XI(50) [1]: XI(50) =0.029 ± .016 mole fraction
CCC[C@@H](/C=C/C(=O)OCC)NC(=O)C(=O)CC [AX093] | 78.3 | – | 66.5 | cPLA2 inh, XI(50) [1]: XI(50) =0.031 ± .011 mole fraction
CCOC(=O)CCCCNC(=O)C(=O)CC [AX102] | 47.1 | 30.6 | 35.3 | –
CCOC(=O)CCNC(=O)C(=O)CC [AX104] | 58.8 | 44 | 50.6 | –
CCC(=O)C(=O)NCCCCC(=O)OC(C)(C)C [AX105] | 96.3 | 73.8 | 61.7 | –
CC/C=C\CC(=O)C(=O)NCCCC(=O)OCC [AX110] | 96.6 | 69.9 | 52.8 | –
CCC(=O)C(=O)NCC(=O)OC(C)(C)C [AX111] | 95.9 | 79.6 | 53.1 | –
CCC(=O)C(=O)NCCC(=O)OC(C)(C)C [AX113] | 100 | 79.2 | 54 | efficacy against sPLA2 (GV sPLA2): about 100%
CCOC(=O)CNC(=O)C(=O)CC [AX114] | 99.8 | 73.7 | 61.6 | –
CCC(=O)C(=O)NCCCC(=O)OCc1ccccc1 [AX116] | 57.5 | 34.8 | 10.7 | –
CCCC[C@H](NC(=O)C(=O)CC)C(=O)NCC(=O)OC(C)(C)C [AX121] | 58.5 | 72 | 89.6 | –
CCCC[C@@H](COCC(=O)OC(C)(C)C)NC(=O)C(=O)CC [AX122] | 57.2 | 43.6 | 81 | –
C=CCOC(=O)CCCNC(=O)C(=O)CC [AX126] | 37.9 | 52.9 | 63.2 | –
CCC[C@H](NC(=O)C(=O)CC)C(=O)NCC(=O)OCC [AX127] | 63.1 | 72.6 | 93.9 | –
CCC[C@@H](COCC(=O)OCC)NC(=O)C(=O)CC [AX128] | 80.6 | 52.3 | 92.8 | –
